From the NIST ThermoML archive (doi:10.1016/j.fluid.2005.12.006)
± gives the expanded uncertainty stated by the source.

Assay: refractive index (Na D-line) (dimensionless)
Settings: 293.1 K; 101.33 kPa; Liquid; Standard Abbe refractometry

CCC(C)c1ccccc1 (stereo not drawn) [(1-methylpropyl)benzene]
refractive index: 1.489 ± 0.0007

CN(C)C=O [dimethylformamide]
refractive index: 1.4281 ± 0.0007

CCCCCCCCCCCC [dodecane]
refractive index: 1.422 ± 0.0007
